System: U87 MG-luc2 human glioma cells, stably expressing luc2
Assay: Luciferase gene downregulation by CPP/siRNA (siLuc2) complexes
Type: cell-based
Settings: CPP/siRNA complexes, siRNA against luciferase
Experimental: For assessing the siRNA mediated RNAi, CHO-GFP or U87-luc2 cells (5×10^5 cells per well) were seeded on a 24-well plate a day prior to the experiment and grown in serum containing media. On experiment day, prior to adding pre-formed complexes ( 1/10th of the final volume per well), media was replaced with fresh serum containing medium.
For complex formation, peptide was mixed with luc2 siRNA (sense 5′-[…]-3′ (SEQ ID NO:7), antisense 5′-[…] 3′ (SEQ ID NO:8), Metabion, Germany) or with siRNA against GFP (5′-[…] (SEQ ID NO:9), 3′-[…] (SEQ ID NO:10)) in mQ water (pH 5.3-6.3) using peptide to siRNA molar ratios (MR is the ratio of peptide to siRNA) […] and incubated at RT for 1 h. For siLuc2, the final concentration in media was 25 nM and for siGFP 100 nM. Cells were co-incubated with complexes for 4 h (37° C., 5% CO2), thereafter fresh serum containing media was added and followed by further incubation (20 h for siLuc2 or 44 h for siGFP complexes). Luciferase gene downregulation was measured from cell lysates with Promega luciferase assay system (Promega, Sweden) in combination with GLOMAX 96 microplate luminometer equipped with GLOMAX 1.9.2 software (Promega). GFP was measured after treatment from cell lysates on black 96-well plates by measuring total fluorescence (Symergy MX, BioTek Instruments, USA equipped with Gen5 1.10 software). The results were normalized to the protein content of each sample (DC Protein Assay, BioRad, USA).
Luciferase activity was determined as described in previous paragraph.
For determination of pH dependency on the transfection efficiency, complexes were formed at MR30, incubated and diluted before addition to cells to obtain siRNA final concentration 10 nM in transfection media. HEPES buffer supplemented with 10% FBS was used as transfection media. Complexes were co-incubated with cells for 4 h and then media was replaced with cell growth media. After further 20 h incubation cells were lysed and analyzed as described previously.
The experiment was carried out in serum containing media (10% FBS). CPP/siRNA complexes were formed at different molar ratios with siRNA concentration kept constant (50 nM in transfection media). Luminescence from luciferin-luciferase reaction was measured at 24 hours post-treatment from cell lysate. Results were normalized to protein content and luminescence values from untreated cells (100%).

With “HHHHHHGO^eILLKALKALAKAIL [NF706, C22 fatty acid on N-terminus; C-terminally amidated]” the “Red (%) (reduction, based on remaining luminescence on U87 cells post-treatment)” value was 59%.
For “HHHHHHYHHGO^eILLKALKALAKAIL [NF721, group H8; C18 saturated fatty acid on N-terminus; C-terminally amidated]”, the “Red (%) (reduction, based on remaining luminescence on U87 cells post-treatment)” value was 55%.
For “HHHHHHYHHGO^eILLKALKALAKAIL [NF722, group H8; C22 saturated fatty acid on N-terminus; C-terminally amidated]”, the “Red (%) (reduction, based on remaining luminescence on U87 cells post-treatment)” value was 45%.
In the case of “HHHHHHYLLGO^eILLKALKALAKAIL [NF707, group H6^2 (histidines before tyrosine); C18 fatty acid on N-terminus; C-terminally amidated]”, the “Red (%) (reduction, based on remaining luminescence on U87 cells post-treatment)” value was 70%.
For “HHHHHHYLLGO^eILLKALKALAKAIL [NF708, group H6^2 (histidines before tyrosine); C20 fatty acid on N-terminus; C-terminally amidated]”, the “Red (%) (reduction, based on remaining luminescence on U87 cells post-treatment)” value was 71%.
“HHHHHHYLLGO^eILLKALKALAKAIL [NF709, group H6^2 (histidines before tyrosine); C22 fatty acid on N-terminus; C-terminally amidated]” was tested, and the “Red (%) (reduction, based on remaining luminescence on U87 cells post-treatment)” value was 55%.
In the case of “HHHHHYHHGO^eILLKALKALAKAIL [NF719, group H7; C18 saturated fatty acid on N-terminus; C-terminally amidated]”, the “Red (%) (reduction, based on remaining luminescence on U87 cells post-treatment)” value was 39%.
With “HHHHHYHHGO^eILLKALKALAKAIL [NF723, group H7; C20 saturated fatty acid on N-terminus; C-terminally amidated]” the “Red (%) (reduction, based on remaining luminescence on U87 cells post-treatment)” value was 49%.
In the case of “HHHHHYHHGO^eILLKALKALAKAIL [NF724, group H7; C22 saturated fatty acid on N-terminus; C-terminally amidated]”, the “Red (%) (reduction, based on remaining luminescence on U87 cells post-treatment)” value was 40%.
With “HHHHYHHGO^eILLKALKALAKAIL [NF701, group H6; C10 (decanoyl) fatty acid on N-terminus; C-terminally amidated]” the “Red (%) (reduction, based on remaining luminescence on U87 cells post-treatment)” value was 20%.
With “HHHHYHHGO^eILLKALKALAKAIL [NF711, group H6; C16 saturated fatty acid on N-terminus; C-terminally amidated]” the “Red (%) (reduction, based on remaining luminescence on U87 cells post-treatment)” value was 35%.
With “HHHYHHGO^eILLKALKALAKAIL [NF715, group H5; C18 saturated fatty acid on N-terminus; C-terminally amidated]” the “Red (%) (reduction, based on remaining luminescence on U87 cells post-treatment)” value was 62%.
With “HHHYHHGO^eILLKALKALAKAIL [NF718, group H5; C22 saturated fatty acid on N-terminus; C-terminally amidated]” the “Red (%) (reduction, based on remaining luminescence on U87 cells post-treatment)” value was 75%.
In the case of “HHYHHGO^eILLKALKALAKAIL [NF712, group H4; C20 saturated fatty acid on N-terminus; C-terminally amidated]”, the “Red (%) (reduction, based on remaining luminescence on U87 cells post-treatment)” value was 83%.
For “HHYHHGO^eILLKALKALAKAIL [NF713, group H4; C22 saturated fatty acid on N-terminus; C-terminally amidated]”, the “Red (%) (reduction, based on remaining luminescence on U87 cells post-treatment)” value was 47%.
For “HHYHHGO^eILLKALKALAKAIL [NF717, group H4; C16 saturated fatty acid on N-terminus; C-terminally amidated]”, the “Red (%) (reduction, based on remaining luminescence on U87 cells post-treatment)” value was 43%.
“HYHHGO^eILLKALKALAKAIL [NF726, group H3; C20 saturated fatty acid on N-terminus; C-terminally amidated]” was tested, and the “Red (%) (reduction, based on remaining luminescence on U87 cells post-treatment)” value was 50%.

From US12385042B2, “Cell-penetrating peptides” (VECTIOPEP OÜ, priority 2019, dated 2025)
